Measurements: patent publication US4102918A, “Anionic phenylcarboxamide complement inhibitors” (American Cyanamid Company, priority 1977, dated 1978)
Counter-ions that a name gives are not always drawn.

How the values were obtained:
Conditions in all cases: activity in wells, two-fold serial dilution assay; higher well number indicates higher activity
[1] = molecular target: T1, activated human C1 (Homo sapiens, UniProt P09871); assay: Test, Code 026 (C1 inhibitor); type: biochemical
T1 construct: fluid-phase C2 cleavage in presence of C4
Description: (§1) An active inhibitor protects C2 from C1 and C4; (ii) Test, Code 035 (C3-C9 inhibitor) -- This test determines the ability of the late components of human complement (C3-C9) to lyse EAC 142 in the presence of appropriate dilutions of the test compound. An active inhibitor protects EAC 142 from lysis by human C3-C9; (iii) Test, Code 036 (C-shunt inhibitor) -- In this test human erythrocytes rendered fragile are lysed in autologous serum via the shunt pathway activated by cobra venom factor in the presence of appropriate dilutions of the test compound. Inhibition of the shunt pathway results in failure of lysis; (iv) Forssman Vasculitis Test -- Here, the well known complement dependent lesion, Forssman vasculitis, is produced in guinea pigs by intradermal injection of rabbit anti-Forssman antiserum. The lesion is measured in terms of diameter, edema and hemorrhage and the extent to which a combined index of these is inhibited by prior intraperitoneal injection of the test compound at 200 mg/kg is then reported, unless otherwise stated; (v) Forssman Shock Test -- Lethal shock is produced in guinea pigs by an i.v. injection of anti-Forssman antiserum and the harmonic mean death time of treated guinea pigs is compared with that of simultaneous controls; (vi) Complement Level Reduction Test -- In this test, the above dosed guinea pigs, or others, are bled for serum and the complement level is determined in undiluted serum by the capillary tube method of U.S. Pat. No. 3,876,376 and compared to undosed control guinea pigs; and (vii) Cap 50 Test -- Here, appropriate amounts of the test compound are added to a pool of guinea pig serum in vitro, after which the undiluted serum capillary tube assay referred to above is run. The concentration of compound inhibiting 50% is reported.

[2] = tested on: late components of human complement (C3-C9); assay: Test, Code 035 (C3-C9 inhibitor), lysis of EAC 142; type: biochemical
Description: as §1

[3] = tested on: shunt pathway; assay: Test, Code 036 (C-shunt inhibitor), lysis of fragile human erythrocytes in autologous serum, cobra venom factor activated; type: cell-based
Description: as §1

T1 sequence (P09871 16-688): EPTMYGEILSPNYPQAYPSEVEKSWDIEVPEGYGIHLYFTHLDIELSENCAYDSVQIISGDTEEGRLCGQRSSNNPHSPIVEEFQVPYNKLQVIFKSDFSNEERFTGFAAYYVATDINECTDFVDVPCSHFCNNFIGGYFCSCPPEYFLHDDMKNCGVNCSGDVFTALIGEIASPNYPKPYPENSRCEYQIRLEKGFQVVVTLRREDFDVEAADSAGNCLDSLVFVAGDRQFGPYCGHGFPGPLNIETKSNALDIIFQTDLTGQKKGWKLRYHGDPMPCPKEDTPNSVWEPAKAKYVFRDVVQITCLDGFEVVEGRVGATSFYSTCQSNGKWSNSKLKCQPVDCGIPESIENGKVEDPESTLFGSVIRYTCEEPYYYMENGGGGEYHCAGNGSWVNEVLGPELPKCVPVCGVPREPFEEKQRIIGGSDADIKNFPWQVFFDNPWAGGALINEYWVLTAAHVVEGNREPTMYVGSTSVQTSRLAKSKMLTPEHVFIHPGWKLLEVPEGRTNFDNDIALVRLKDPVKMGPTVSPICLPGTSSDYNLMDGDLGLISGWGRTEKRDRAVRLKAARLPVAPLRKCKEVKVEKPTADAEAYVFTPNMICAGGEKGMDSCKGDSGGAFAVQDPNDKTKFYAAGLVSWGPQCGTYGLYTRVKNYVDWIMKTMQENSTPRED
T1 sequence (P00736 18-705 partner): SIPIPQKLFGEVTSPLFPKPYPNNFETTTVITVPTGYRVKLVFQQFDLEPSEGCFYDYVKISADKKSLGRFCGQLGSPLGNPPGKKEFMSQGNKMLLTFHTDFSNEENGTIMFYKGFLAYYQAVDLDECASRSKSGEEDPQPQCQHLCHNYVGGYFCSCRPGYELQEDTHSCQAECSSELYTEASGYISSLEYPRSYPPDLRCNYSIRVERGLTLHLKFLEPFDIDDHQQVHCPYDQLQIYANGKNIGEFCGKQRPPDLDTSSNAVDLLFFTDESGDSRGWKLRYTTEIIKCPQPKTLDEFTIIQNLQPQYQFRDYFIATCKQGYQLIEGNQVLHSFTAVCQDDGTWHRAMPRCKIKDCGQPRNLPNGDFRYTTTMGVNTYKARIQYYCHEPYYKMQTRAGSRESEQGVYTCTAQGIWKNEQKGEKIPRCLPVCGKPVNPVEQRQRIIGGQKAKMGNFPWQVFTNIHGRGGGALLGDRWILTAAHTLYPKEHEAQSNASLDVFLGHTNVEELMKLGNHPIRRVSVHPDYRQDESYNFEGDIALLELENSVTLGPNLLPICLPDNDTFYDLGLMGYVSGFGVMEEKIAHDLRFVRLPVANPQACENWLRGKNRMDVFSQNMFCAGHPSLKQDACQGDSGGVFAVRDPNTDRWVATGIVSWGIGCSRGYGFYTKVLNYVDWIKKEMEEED
T1 sequence (P02745 23-245 partner): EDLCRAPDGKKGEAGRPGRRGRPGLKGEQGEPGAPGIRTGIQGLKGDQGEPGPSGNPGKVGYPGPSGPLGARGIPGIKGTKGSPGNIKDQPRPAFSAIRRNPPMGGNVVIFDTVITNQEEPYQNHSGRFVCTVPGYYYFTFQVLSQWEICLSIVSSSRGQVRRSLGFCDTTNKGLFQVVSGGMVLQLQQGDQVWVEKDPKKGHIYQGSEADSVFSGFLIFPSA
T1 sequence (P02746 28-253 partner): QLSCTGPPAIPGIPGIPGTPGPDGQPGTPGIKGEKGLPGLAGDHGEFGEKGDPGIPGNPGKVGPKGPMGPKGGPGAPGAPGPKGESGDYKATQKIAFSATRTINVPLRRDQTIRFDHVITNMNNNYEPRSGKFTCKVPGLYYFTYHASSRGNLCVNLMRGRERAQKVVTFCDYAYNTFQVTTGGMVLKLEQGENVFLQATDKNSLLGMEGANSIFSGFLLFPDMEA
T1 sequence (P02747 29-245 partner): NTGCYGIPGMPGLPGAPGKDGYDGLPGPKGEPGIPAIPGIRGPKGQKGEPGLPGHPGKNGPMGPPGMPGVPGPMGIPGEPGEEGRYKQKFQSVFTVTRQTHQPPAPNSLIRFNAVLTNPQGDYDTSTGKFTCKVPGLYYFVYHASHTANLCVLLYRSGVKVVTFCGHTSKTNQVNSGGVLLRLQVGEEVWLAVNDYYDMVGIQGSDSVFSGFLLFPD

Compound	Cl 026 Wells [1]	C-Late 035 Wells [2]	Shunt Inhibition 036 Wells [3]
Nc1cc(C(=O)Nc2cc(C(=O)O)c(O)c(S(=O)(=O)O)c2)cc(C(=O)Nc2cc(C(=O)O)c(O)c(S(=O)(=O)O)c2)c1 [5,5'-[5-Amino-1,3-phenylenebis(carbonylimino)]bis[3-sulfosalicylic acid]disodium salt]	+2 Wells	N	N
O=C(Nc1cc(C(=O)O)c(O)c(S(=O)(=O)O)c1)c1cc(C(=O)Nc2cc(C(=O)O)c(O)c(S(=O)(=O)O)c2)cc([N+](=O)[O-])c1 [5,5'-[(5-Nitro-1,3-phenylene)bis(carbonylimino)]bis[3-sulfosalicylic acid]disodium salt]	+2 Wells	N	N
O=C(Nc1ccc(O)c(C(=O)O)c1)c1cc(C(=O)Nc2ccc(O)c(C(=O)O)c2)cc([N+](=O)[O-])c1 [5,5'-[5-Nitro-m-phenylenebis(carbonylimino)]disalicylic acid]	α	N	N
